IC50 data for 35 compounds are collected here from patent US20250221979A1, “NOVEL HETEROCYCLIC COMPOUND” (SHOUYAO HOLDINGS (BEIJING) CO., LTD., priority 2022, published 2025).

The IC50 is the concentration needed to halve the response being measured.

human MAT2A enzyme, sequence (P31153 whole entry): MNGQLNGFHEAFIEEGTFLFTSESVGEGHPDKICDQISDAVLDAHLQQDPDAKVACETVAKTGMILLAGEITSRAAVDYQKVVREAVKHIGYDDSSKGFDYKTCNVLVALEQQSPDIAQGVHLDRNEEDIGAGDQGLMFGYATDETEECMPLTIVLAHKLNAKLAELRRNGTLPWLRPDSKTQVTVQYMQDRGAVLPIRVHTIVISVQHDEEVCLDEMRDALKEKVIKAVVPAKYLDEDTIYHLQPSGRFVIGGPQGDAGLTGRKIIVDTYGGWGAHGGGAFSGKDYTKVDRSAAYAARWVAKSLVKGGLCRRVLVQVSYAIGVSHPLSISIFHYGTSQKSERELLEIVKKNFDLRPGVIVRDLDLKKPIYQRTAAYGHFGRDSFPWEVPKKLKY

In the assay the target is human MAT2A enzyme (Homo sapiens (Human), UniProt P31153). The experiment in a line: In vitro enzymatic inhibition activity assay on MAT2A (PiColorLock phosphate detection). It is filed as biochemical. The settings on record: purified human MAT2A 10 nM, ATP 50 μM, L-methionine 100 μM, 6 h at 23° C.; read-out: MAT2A inhibitory activity IC50. Put shortly:
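Purified human MAT2A (10 nM) turned L-methionine (100 μM) and ATP (50 μM) into SAM in Tris-HCl pH 7.5 buffer with MgCl2, KCl and DTT for 6 h at 23 °C. Released phosphate was read colorimetrically at 630 nm. IC50 was fitted from an 8-point, 10-fold dilution series.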
Regarding `COC(=O)c1c(N)c2ccc(Br)cc2n(-c2ccc(C(C)O)nc2)c1=O` (centres unmarked) [Example 352, methyl 4-amino-7-bromo-1-(6-(1-hydroxyethyl)pyridin-3-yl)-2-oxo-1,2-dihydroquinoline-3-carboxylate], the 50% inhibitory concentration (IC50) came out at 2.58 nM.
With `CCc1ccccc1-n1c(=O)c(C(=O)OC)c(N)c2ccc(C(F)(F)F)cc21` [Example 145, methyl 4-amino-1-(2-ethylphenyl)-2-oxo-7-(trifluoromethyl)-1,2-dihydroquinoline-3-carboxylate], the IC50 amounted to 4.6 nM.
For the compound `COC(=O)c1c(N)c2ccc(C)nc2n(-c2ccc([C@@H](C)O)cc2)c1=O` [Example 343, methyl 4-amino-(1-(4-(1R)-1-hydroxyethyl)phenyl)-7-methyl-2-oxo-pyrido[2,3-b]pyridin-3-carboxylate], the concentration for half-maximal inhibition (IC50) amounted to 2.39 nM.
On to `COC(=O)c1c(N)c2ccc(OC(F)F)cc2n(-c2ccc(C(C)O)cc2)c1=O` (centres unmarked) [Example 335, methyl 4-amino-7-(difluoromethoxy)-1-(4-(1-hydroxyethyl)phenyl)-2-oxo-1,2-dihydroquinoline-3-carboxylate], for which the IC50 came out at 2.06 nM.
Under `COC(=O)c1c(N)c2ccc(Br)cc2n(-c2ccc(Cl)cc2C)c1=O` [Example 152, methyl 4-amino-7-bromo-1-(4-chloro-2-methylphenyl)-2-oxo-1,2-dihydroquinoline-3-carboxylate] stands 1.64 nM; under `COC(=O)c1c(N)c2ccc(Br)nc2n(-c2ccc(N)cc2Cl)c1=O` [Example 295, methyl 4-amino-1-(4-amino-2-chlorophenyl)-2-oxo-7-bromo-1,2-dihydro-1,8-naphthyridine-3-carboxylate], 0.89 nM.
As to `COC(=O)c1c(N)c2ccc(C3CC3)cc2n(-c2ccc(OC)cc2)c1=O` [Example 73, methyl 4-amino-7-cyclopropyl-1-(4-methoxyphenyl)-2-oxo-1-phenyl-1,2-dihydroquinoline-3-carboxylate], the IC50 was 1.67 nM.
For `COC(=O)c1c(N)c2ccc(I)cc2n(-c2ccc(OC)cc2)c1=O` [Example 79, methyl 4-amino-7-iodo-1-(4-methoxyphenyl)-2-oxo-1,2-dihydroquinoline-3-carboxylate], the IC50 is 0.61 nM.
The result for `COC(=O)c1c(N)c2ccc(Br)cc2n(-c2ccc([N+](=O)[O-])cc2)c1=O` [Example 130, methyl 4-amino-2-oxo-7-bromo-1-(4-nitrophenyl)-1,2-dihydroquinoline-3-carboxylate] reads 5.99 nM; that for `COC(=O)c1c(N)c2ccc(C(F)F)cc2n(-c2ccc([C@@H](C)O)cc2)c1=O` [Example 357, methyl (R)-4-amino-7-(difluoromethyl)-1-(4-(1-hydroxyethyl)phenyl)-2-oxo-1,2-dihydroquinoline-3-carboxylate], 0.54 nM.
Regarding `COC(=O)c1c(N)c2ccc(C)cc2n(-c2cccc3cnccc23)c1=O` [Example 205, methyl 4-amino-1-(isoquinolin-5-yl)-7-methyl-2-oxo-1,2-dihydroquinoline-3-carboxylate], the IC50 was 4.47 nM.
For the compound `COC(=O)c1c(N)c2ccc(C(F)(F)F)cc2n(-c2ccc3c(c2)CCC3O)c1=O` (centres unmarked) [Example 135, methyl 4-amino-1-(1-hydroxy-2,3-dihydro-1H-inden-5-yl)-2-oxo-7-(trifluoromethyl)-1,2-dihydroquinoline-3-carboxylate], the IC50 is 8.85 nM.
The result for `COC(=O)c1c(N)c2ccc(I)cc2n(-c2cccc3c2CCO3)c1=O` [Example 59, methyl 4-amino-1-(2,3-dihydro-1-benzofuran-4-yl)-7-iodo-2-oxo-1,2-dihydro quinoline-3-carboxylate] reads 5.12 nM; that for `N#Cc1c(N)c2ccc(I)cc2n(-c2ccccc2)c1=O` [Example 4, 4-amino-7-iodo-2-oxo-1-phenyl-1,2-dihydroquinolin-3-carbonitrile], 2.28 nM; that for `COC(=O)c1c(N)c2ccc(I)cc2n(-c2ccccc2Cl)c1=O` [Example 20, methyl 4-amino-7-iodo-1-(2-chlorophenyl)-2-oxo-1,2-dihydroquinoline-3-carboxylate], 5.98 nM.
Under `COC(=O)c1c(N)c2ccc(I)cc2n(-c2ccc(C(C)O)cc2)c1=O` (centres unmarked) [Example 298, methyl 4-amino-1-(4-(1-hydroxyethyl)phenyl)-2-oxo-7-iodo-1,2-dihydroquinoline-3-carboxylate] stands 0.43 nM.
Take `COC(=O)c1c(N)c2ccc(Br)cc2n(-c2ccc(Cl)cc2)c1=O` [Example 91, methyl 4-amino-7-bromo-1-(4-chlorophenyl)-2-oxo-1,2-dihydroquinoline-3-carboxylate]: the IC50 amounted to 0.93 nM.
With `COC(=O)c1c(N)c2ccc(C(F)(F)F)cc2n(-c2ccc(N)cc2C)c1=O` [Example 237, methyl 4-amino-1-(4-amino-2-methylphenyl)-2-oxo-7-(trifluoromethyl)-1,2-dihydroquinoline-3-carboxylate], the IC50 is 1.64 nM.
For `COC(=O)c1c(N)c2ccc(Br)cc2n(-c2ccc(OC(F)F)cc2)c1=O` [Example 83, methyl 4-amino-7-bromo-1-(4-((difluoromethyl)oxy)phenyl)-2-oxo-1,2-dihydroquinoline-3-carboxylate], the half-maximal inhibitory concentration (IC50) was 1.21 nM.
On to `COC(=O)c1c(N)c2ccc(C(F)(F)F)nc2n(-c2ccc(N)cc2C)c1=O` [Example 282, methyl 4-amino-1-(4-amino-2-methylphenyl)-2-oxo-7-(trifluoromethyl)-1,2-dihydro-1,8-naphthyridine-3-carboxylate], for which the IC50 amounted to 2.2 nM.
Consider `COC(=O)c1c(N)c2ccc(C(F)(F)F)cc2n(-c2ccc(C)cc2C)c1=O` [Example 149, methyl 4-amino-1-(2,4-dimethylphenyl)-2-oxo-7-(trifluoromethyl)-1,2-dihydroquinoline-3-carboxylate], for which the IC50 is 3.12 nM.
As to `COC(=O)c1c(N)c2ccc(C(F)(F)F)nc2n(-c2cccc3c(C)nccc23)c1=O` [Example 319, methyl 4-amino-1-(1-methylisoquinolin-5-yl)-2-oxo-7-(trifluoromethyl)-1,2-dihydro-1,8-naphthyridine-3-carboxylate], the IC50 came out at 1.2 nM.
Regarding `COC(=O)c1c(N)c2ccc(Br)cc2n(-c2cccc(N)c2)c1=O` [Example 284, methyl 4-amino-1-(3-aminophenyl)-7-bromo-2-oxo-1,2-dihydroquinoline-3-carboxylate], the IC50 was determined as 2.44 nM.
Take `CCOC(=O)c1c(N)c2ccc(C(F)(F)F)cc2n(-c2ccc([C@@H](C)O)cc2)c1=O` [Example 330, ethyl 4-amino-1-(4-(1-(R)-hydroxyethyl)phenyl)-2-oxo-7-(trifluoromethyl)-1,2-dihydroquinoline-3-carboxylate]: the IC50 turned out to be 0.92 nM.
On to `COC(=O)c1c(N)c2ccc(NCC(F)(F)F)nc2n(-c2ccc(C)nc2)c1=O` [Example 382, methyl 4-amino-1-(6-methylpyridin-3-yl)-2-oxo-7-((2,2,2-trifluoroethyl)amino)-1,2-dihydro-1,8-naphthyridine-3-carboxylate], for which the IC50 worked out at 1.88 nM.
Consider `COC(=O)c1c(N)c2ccc(C(F)(F)F)cc2n(-c2ccc3occc3c2)c1=O` [Example 196, methyl 4-amino-1-(6-benzofuran-5-yl)-2-oxo-7-(trifluoromethyl)-1,2-dihydro quinoline-3-carboxylate], for which the IC50 worked out at 0.81 nM.
With `COC(=O)c1c(N)c2ccc(Br)nc2n(-c2cnc(Cl)cc2C)c1=O` [Example 249, methyl 4-amino-7-bromo-1-(6-chloro-4-methylpyridin-3-yl)-2-oxo-1,2-dihydro-1,8-naphthyridine-3-carboxylate], the IC50 came to 2.99 nM.
In the case of `COC(=O)c1c(N)c2ccc(Br)cc2n(-c2ccc(OC)nc2)c1=O` [Example 211, methyl 4-amino-7-bromo-1-(6-methoxypyridin-3-yl)-2-oxo-1,2-dihydroquinoline-3-carboxylate], the IC50 was 1.84 nM.
Take `COC(=O)c1c(N)c2ccc(C3CC3)cc2n(-c2ccc([C@@H](C)O)cc2)c1=O` [Example 353, methyl 4-amino-(1-(4-(1R)-1-hydroxyethyl)phenyl)-7-cyclopropyl-2-oxo-1,2-dihydroquinoline-3-carboxylate]: the 50% inhibitory concentration (IC50) was found to be 1.25 nM.
For the compound `[2H]C([2H])([2H])OC(=O)c1c(N)c2ccc(C(F)(F)F)nc2n(-c2ccc(C(C)O)cc2)c1=O` (centres unmarked) [Example 310, methyl-d3 4-amino-1-(4-(1-hydroxyethyl)phenyl)-2-oxo-7-(trifluoromethyl)-1,2-dihydro-1,8-naphthyridine-3-carboxylate], the IC50 was determined as 0.74 nM.
With `COC(=O)c1c(N)c2ccc(Br)cc2n(-c2ccc(C)cc2)c1=O` [Example 101, methyl 4-amino-7-bromo-1-(4-methylphenyl)-2-oxo-1,2-dihydroquinoline-3-carboxylate], the IC50 turned out to be 0.59 nM.
Take `COC(=O)c1c(N)c2ccc(C(F)(F)F)cc2n(-c2ccc(Br)cc2)c1=O` [Example 81, methyl 4-amino-1-(4-bromophenyl)-2-oxo-7-(trifluoromethyl)-1,2-dihydro quinoline-3-carboxylate]: the IC50 turned out to be 1.68 nM.
Take `[2H]C([2H])([2H])OC(=O)c1c(N)c2ccc(OC(F)(F)F)cc2n(-c2ccc(N)cc2)c1=O` [Example 391, methyl-d3 4-amino-1-(4-aminophenyl)-2-oxo-7-(trifluoromethoxy)-1,2-dihydroquinoline-3-carboxylate]: the IC50 stood at 1.31 nM.
Regarding `[2H]C([2H])([2H])OC(=O)c1c(N)c2ccc(C(F)(F)F)cc2n(-c2ccc(C(C)O)cc2)c1=O` (centres unmarked) [Example 331, methyl-d3 4-amino-1-(4-(1-hydroxyethyl)phenyl)-2-oxo-7-(trifluoromethyl)-1,2-dihydroquinolin-3-carboxylate], the concentration for half-maximal inhibition (IC50) was 2.49 nM.
Under `COC(=O)c1c(N)c2ccc(Br)cc2n(-c2ccc(F)cc2)c1=O` [Example 78, methyl 4-amino-7-bromo-1-(4-fluorophenyl)-2-oxo-1,2-dihydroquinoline-3-carboxylate] stands 2.72 nM.
